Data on eight molecules can be found in patent US9688596B2, “Synthesis and biological activity of 2-methylene analogs of calcitriol and related compounds” (Wisconsin Alumni Research Foundation, priority 2015, dated 2017).

“Also recorded” adds a separate entry of the source.

Data set [1] can be described thus: Intestinal calcium transport (everted gut sac). The settings on record: rats, four consecutive intraperitoneal doses. Format: in vivo, rat. As to the method:
(§1) Male, weanling Sprague-Dawley rats were purchased from Harlan (Indianapolis, Ind.). The animals were group housed and placed on Diet 11 (0.47% Ca)+AEK oil for one week followed by Diet 11 (0.02% Ca)+AEK oil for 3 weeks. The rats were then switched to a diet containing 0.47% Ca^xxiii for one week followed by two weeks on a diet containing 0.02% Ca. Dose administration began during the last week on 0.02% Ca diet. Four consecutive intraperitoneal doses were given approximately 24 hours apart. Twenty four hours after the last dose, blood was collected from the severed neck and the concentration of serum calcium determined as a measure of bone calcium mobilization. The first 10 cm of the intestine was also collected for the intestinal calcium transport analysis using the everted gut sac method.^25

Data set [2] deals with T1, full-length recombinant rat vitamin D receptor (Rattus norvegicus, UniProt P13053).
T1 sequence (P13053 1-423): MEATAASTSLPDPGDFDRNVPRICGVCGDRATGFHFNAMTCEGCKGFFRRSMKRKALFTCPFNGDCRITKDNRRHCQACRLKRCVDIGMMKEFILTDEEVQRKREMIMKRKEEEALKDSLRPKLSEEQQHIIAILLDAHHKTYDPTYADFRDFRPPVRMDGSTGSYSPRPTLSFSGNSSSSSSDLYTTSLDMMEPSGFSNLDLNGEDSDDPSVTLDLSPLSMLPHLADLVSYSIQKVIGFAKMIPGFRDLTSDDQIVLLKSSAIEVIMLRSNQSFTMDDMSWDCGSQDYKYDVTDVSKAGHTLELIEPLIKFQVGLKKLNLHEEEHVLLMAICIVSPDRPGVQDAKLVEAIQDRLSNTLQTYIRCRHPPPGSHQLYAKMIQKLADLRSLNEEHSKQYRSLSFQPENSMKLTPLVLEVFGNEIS
The data set can be described thus: Competitive binding to the vitamin D receptor. The settings on record: for VDR Binding Ki Ratio: average ratio of the 1α,25-(OH)2D3 Ki to the Ki for the analogue, radiolabeled 1α,25-(OH)2D3 at 1 nM, Kd 0.2 nM; for VDR binding ability (in words): comparator (1 or 3).
Procedure: In the first competitive binding assay, the affinity of vitamins to the full-length recombinant rat receptor was evaluated and compared to 1α,25-(OH)2D3 (1) and 2MD (3).
The Ki values are derived from the dose-response curves and represent the inhibition constant when radiolabeled 1α,25-(OH)2D3 is present at 1 nM and a Kd of 0.2 nM is used. The numbers shown in the Table are expressed as the average ratio of the 1α,25-(OH)2D3 Ki to the Ki for the analogue. ^bInduction of differentiation of HL-60 promyelocytes to monocytes by 1α,25-(OH)2D3 (1) and the synthesized vitamin D analogues. Differentiation state was determined by measuring the percentage of cells reducing nitro blue tetrazolium (NBT). The experiment was repeated in duplicate two times. […] The numbers shown in the Table are expressed as the average ratio of the 1α,25-(OH)2D3 ED50 to the ED50 for the analogue. ^cTranscriptional assay in rat osteosarcoma cells stably transfected with a 24-hydroxylase gene reporter plasmid. […] The numbers shown in the Table are expressed as the average ratio of the 1α,25-(OH)2D3 ED50 to the ED50 for the analogue.

Data set [3] in a line: Bone calcium mobilization (serum calcium). The settings on record: rats, four consecutive intraperitoneal doses. The format is in vivo, rat. As to the method: as §1
Data set [4] deals with human promyelocytic HL-60 cells. The data set can be described thus: HL-60 differentiation (NBT reduction). The format is cell-based. Particulars: for HL-60 differentiation ED50 Ratio: average ratio of the 1α,25-(OH)2D3 ED50 to the ED50 for the analogue, 50% maturation, NBT reduction; for ability to elicit differentiation of HL-60 cells into monocytes (in words): comparator (2MD).

The subject of data set [5] is 24-hydroxylase (CYP-24) promoter. The data set can be described thus: 24-hydroxylase transcription (luciferase reporter in rat osteosarcoma cells). Format: cell-based. The settings on record: for 24OHase transcription ED50 Ratio: average ratio of the 1α,25-(OH)2D3 ED50 to the ED50 for the analogue, luciferase activity; for transcriptional potency (in words): compared with 1α,25-(OH)2D3 (1). The text has this: The activity of the synthesized vitamins in inducing transcription of vitamin D target gene was examined using the 24-hydroxylase (CYP-24) promoter.
Background: In a reporter assay the amount or activity of a reporter protein is the signal.

For data set [6] the following is noted: clinical trial; cited from earlier work.
The conditions of data set [7]: ovariectomized (OVX) rat; cited from earlier work.
The next data set concerns bone formation. Particulars: cited from earlier work.
The conditions of data set [8]: cited from earlier work.
For data set [9] the following is noted: compared with 1; cited from earlier work.
The conditions of data set [10]: earlier work; cited from earlier work.
Where [11] appears, read: listed as 2-methylene calcitriol.

In the case of `C=C1/C(=C\C=C2/CCC[C@]3(C)[C@@H]([C@@H](C)CCCC(C)(C)O)CC[C@@H]23)C[C@@H](O)C(=C)[C@@H]1O` [Compound 9, (20S)-1α,25-dihydroxy-2-methylene-vitamin D3], the “intestinal calcium transport activity (in words)” value in data set [1] is “Much higher potency on intestine; also recorded: more potent than 1 and 3”. Moreover, in data set [2], the “VDR Binding Ki Ratio” value was 1.1 and the “VDR binding ability (in words)” value is “almost identical”. Also, in [3], the “bone calcium mobilization / potency in raising serum calcium (in words)” value (“bone calcium mobilization / potency” for short) is on record as “highest potency in raising serum calcium; also recorded: slightly lower than that of 3; also recorded: ca. one order of magnitude higher compared to calcitriol”. In data set [4], the “HL-60 differentiation ED50 Ratio” value is given as 29 and the “ability to elicit differentiation of HL-60 cells into monocytes (in words)” value was “highest ability to elicit cellular differentiation; also recorded: almost identical”. For the same molecule, in data set [5], the “24OHase transcription ED50 Ratio” value is reported as 10 and the “transcriptional potency (in words)” value was “most pronounced activity”. Further, the “transcriptional activity decreased compared with 3 (2MD)” value in data set [5] (compared with 3) is reported as “three”.

Consider `C=C1/C(=C/C=C2\CCC[C@]3(C)[C@@H]([C@@H](C)CCCC(C)(C)O)CC[C@@H]23)C[C@@H](O)C(=C)[C@@H]1O` [Compound 13, (5E,20S)-1α,25-dihydroxy-2-methylene-vitamin D3], for which, in [2], the “VDR Binding Ki Ratio” value turned out to be 1.1 and the “VDR binding ability (in words)” value was “almost identical”. In addition, the “bone calcium mobilization / potency” value in data set [3] is recorded as “significantly decreased activity in bone”. Also, in data set [4], the “HL-60 differentiation ED50 Ratio” value is reported as 20 and the “ability to elicit differentiation of HL-60 cells into monocytes (in words)” value is “highest ability to elicit cellular differentiation; also recorded: almost identical”. In data set [5], the “24OHase transcription ED50 Ratio” value is 5 and the “transcriptional potency (in words)” value is on record as “most pronounced activity”.

As for `C=C1/C(=C/C=C2\CCC[C@]3(C)[C@@H]([C@H](C)CCCC(C)(C)O)CC[C@@H]23)C[C@@H](O)C(=C)[C@@H]1O` [Compound 12, (5E)-1α,25-dihydroxy-2-methylene-vitamin D3], the “VDR Binding Ki Ratio” value in data set [2] stood at 2.5. Also, in data set [2] (compared to 1α,25-(OH)2D3 (1)), the “affinity to the receptor, higher than natural hormone 1” value was 2.5 fold. Moreover, in data set [3], the “bone calcium mobilization / potency” value is given as “significantly decreased activity in bone”. The “HL-60 differentiation ED50 Ratio” value in data set [4] is 0.4. In addition, in [5], the “24OHase transcription ED50 Ratio” value was determined as 1 and the “transcriptional potency (in words)” value was “same transcriptional potency as 1α,25-(OH)2D3 (1)”.

`C=C1/C(=C\C=C2/CCC[C@]3(C)[C@@H]([C@H](C)CCCC(C)C)CC[C@@H]23)C[C@@H](O)C(=C)[C@@H]1O` [Compound 10, 1α-hydroxy-2-methylene-vitamin D3]: the “VDR binding ability (in words)” value in [2] is “decreased by two orders of magnitude”. In addition, the “bone calcium mobilization / potency” value in [3] is “less active but still more calcemic than calcitriol; also recorded: Strong calcemic activity”. Further, the “HL-60 differentiation ED50 Ratio” value in data set [4] is given as 0.07. For the same molecule, the “transcriptional potency (in words)” value in [5] is recorded as “decreased by one order of magnitude”.

In the case of `C=C1[C@H](O)CC(=C/C=C2\CCC[C@]3(C)[C@@H](C(C)CCCC(C)(C)O)CC[C@@H]23)C[C@H]1O` (stereo partly drawn) [Compound 3, (20S)-1α,25-dihydroxy-2-methylene-19-nor vitamin D3], in data set [6], the “bone turnover in postmenopausal women” value was “increase bone turnover”. Moreover, the “bone formation in OVX rat model” value in data set [7] is listed as “strongly stimulate bone formation”. In addition, in data set [2], the “VDR Binding Ki Ratio” value is given as 1. In the data set with bone formation, the “bone formation in vitro” value was “strongly stimulate bone formation”. Further, in data set [8], the “activity in the intestine compared with 1” value is reported as “similar”. Besides, the “activity in the bone tissue higher than 1” value in data set [9] is “ca. 30 times”. In addition, the “HL-60 differentiation ED50 Ratio” value in data set [4] worked out at 25. For the same molecule, the “24OHase transcription ED50 Ratio” value in data set [5] was found to be 29.

As for `C=C1/C(=C\C=C2/CCC[C@]3(C)[C@@H]([C@@H](C)CCCC(C)C)CC[C@@H]23)C[C@@H](O)C(=C)[C@@H]1O` [Compound 11, (20S)-1α-hydroxy-2-methylene-vitamin D3], the “VDR binding ability (in words)” value in data set [2] is recorded as “decreased by two orders of magnitude”. Moreover, the “bone calcium mobilization / potency” value in [3] is “less active but still more calcemic than calcitriol; also recorded: Strong calcemic activity”. Besides, the “HL-60 differentiation ED50 Ratio” value in data set [4] is listed as 0.7. Moreover, in [5], the “transcriptional potency (in words)” value is reported as “decreased by one order of magnitude”.

Take `C=C1/C(=C\C=C2/CCC[C@]3(C)[C@@H]([C@H](C)CCCC(C)(C)O)CC[C@@H]23)C[C@@H](O)C(=C)[C@@H]1O` [Compound 8, 1α,25-dihydroxy-2-methylene-vitamin D3]: the “intestinal calcium transport activity (in words)” value was “Much higher potency on intestine; also recorded: considerably higher potency; also recorded: more potent than 1 and 3” in data set [1]; “more active in intestine” in data set [1] (setting [11]). Further, in data set [2], the “VDR Binding Ki Ratio” value is on record as 1.4. In addition, in data set [2], the “VDR binding ability (in words)” value is on record as “almost as effectively as the natural hormone 1”. The “bone calcium mobilization / potency” value is “highest potency in raising serum calcium; also recorded: considerably higher potency” in data set [3] and “almost as active as 2MD in the bone” in data set [3] (setting [11]). Further, the “HL-60 differentiation ED50 Ratio” value in data set [4] came out at 0.7. In addition, the “24OHase transcription ED50 Ratio” value in data set [5] was 1. In data set [5], the “transcriptional potency (in words)” value is recorded as “same transcriptional potency as 1α,25-(OH)2D3 (1)”.

As for `C=C1[C@H](O)CC(=C/C=C2\CCC[C@]3(C)[C@@H]([C@H](C)CCCC(C)(C)O)CC[C@@H]23)C[C@H]1O` [Compound 2, reference compound], in data set [2], the “VDR Binding Ki Ratio” value stood at 1. For the same molecule, the “calcemic potency / in vivo calcemic activity” value in data set [10] is listed as “significantly increased calcemic potency”. Besides, in [4], the “HL-60 differentiation ED50 Ratio” value was 1. Besides, the “24OHase transcription ED50 Ratio” value in [5] came out at 1.
